{
  "source": "paper PMC11396751",
  "about": "“Design, Synthesis, and Anticancer Activity of Novel Enmein-Type Diterpenoid Derivatives Targeting the PI3K/Akt/mTOR Signaling Pathway” (Molecules, 2024)",
  "key": {"A549 cells [1]": {"system": "A549 cells", "assay": "MTT anti-proliferative assay, A549", "type": "cell-based, human", "protocol": "(§1) A series of novel enmein-type diterpenoid derivatives, 5a–m, were synthesized by introducing a side chain containing a carbamate moiety at the C-6 position of compound 4. The anticancer activities of 5a–m were tested against three human cancer cell lines and one human normal cell line by MTT assay.\n(§2) Human non-small cell lung cancer cell lines (A549), human liver cancer cell lines (HepG2), human breast cancer cell lines (MCF-7), and human normal cell lines (L-02) were purchased from the cell bank of the Chinese Academy of Sciences. All cells were placed in RPMI-1640 medium (added 10% fetal bovine serum, […]) and cultured in an aseptic environment with 5% CO2 at 37 °C.\n(§3) All derivatives were evaluated for their anti-proliferative activities against three cancer cell lines and one normal cell line by MTT assay. The cells in the logarithmic growth phase were inoculated into 96-well plates (3 × 10^3 cells/well) and incubated for 48 h in a sterile environment with 5% CO2 at 37 °C to make them attach via cell adhesion; then, the cells were co-incubated with target compounds for 48 h. After that, MTT solution (10 µL/well) was added to the cell culture medium to continue incubation for 4 h, following which the medium was replaced with DMSO (150 µL/well). The absorbance values at 490 nm were determined using an enzyme meter (Safire 2, Tecan, Männedorf, Switzerland) and further converted to half-inhibitory concentration values of these compounds."}, "A549 cells [2]": {"system": "A549 cells", "assay": "Apoptosis rate, Annexin V-FITC/PI, flow cytometry", "type": "cell-based, human", "conditions": "48 h", "protocol": "To further confirm the capacity of 7h to induce apoptosis in cancer cells, A549 cells were treated with 7h, detected using Annexin V-FITC/PI staining, and the apoptosis rate was detected by flow cytometry.\nA549 cells were inoculated into 6-well plates and attached via cell adhesion. Then, gradient concentrations (0, 2, 4, and 8 µM) of 7h was added and co-incubated for 48 h. The cells were gathered and prepared as cell suspensions according to the method described in Section 4.2.3. The cell suspension was treated with Annexin V-FITC/PI staining solution, and the data were gathered using a flow cytometer (FACS Calibur, BD, Milpitas, CA, USA) and analyzed using Flow Jo software. Three attempts were performed for each treatment to eliminate experimental bias."}, "L-02 cells": {"system": "L-02 cells", "assay": "MTT anti-proliferative assay, normal L-02 cells", "type": "cell-based", "conditions": "means ± SD of three experiments", "protocol": "as §1, §2, §3"}, "MCF-7 cells": {"system": "MCF-7 cells", "assay": "MTT anti-proliferative assay, MCF-7", "type": "cell-based", "conditions": "Homo sapiens, MCF7, 48 h, means ± SD of three experiments", "protocol": "as §1, §2, §3"}, "A549 cells [3]": {"system": "A549 cells", "assay": "Cell cycle analysis, PI/RNase, flow cytometry", "type": "cell-based, human", "conditions": "48 h", "protocol": "Cell cycle regulation is an essential process in maintaining normal bodily functions and is often disturbed in cancer cells. The inducement of cell cycle arrest is considered a key avenue for targeted cancer therapy. As a novel enmein-type diterpenoid derivative with remarkable anti-proliferative effects against A549 cells, 7h may have the ability to induce cell cycle arrest. Therefore, A549 cells were treated with 7h, stained with PI/RNase solution, and analyzed for their cell cycle distribution by flow cytometry.\nA549 cells were inoculated into 24-well plates and attached via cell adhesion. Then, gradient concentrations (0, 2, 4, and 8 µM) of 7h were added and the cells were co-incubated for 48 h. The cells were cleaned with ice-cold phosphate buffer solution (PBS), digested with trypsin, collected, and prepared as a cell suspension. The cell suspension was treated with PI/RNase staining solution, the data were gathered using a flow cytometer (FACS Calibur, BD, Milpitas, CA, USA), and the cell cycle distribution was analyzed using Flow Jo software. Three attempts were performed for each treatment to eliminate experimental bias."}, "A549 cells [4]": {"system": "A549 cells", "assay": "Apoptosis morphology, AO/EB double staining", "type": "cell-based, human", "conditions": "A549, 2, 4 and 8 µM, 48 h", "protocol": "To explore whether compound 7h could induce apoptosis in cancer cells, A549 cells were treated with different concentrations (0, 2, 4, and 8 µM) of 7h and then stained with AO/EB double staining. In the blank control group, normal cells were stained green with AO staining solution with intact nuclei.\nA549 cells were inoculated into 24-well plates and attached via cell adhesion. Then, gradient concentrations (0, 2, 4, and 8 µM) of 7h were added and co-incubated for 48 h. The cells were cleaned with ice-cold PBS, stained with AO/EB, mixed, and then incubated in cells for 5 min in darkness at 25 °C. The apoptosis morphology of the cells in each group was observed and photographed using a laser confocal microscope (LSM710, Zeiss, Oberkochen, Germany)."}, "HepG2 cells": {"system": "HepG2 cells", "assay": "MTT anti-proliferative assay, HepG2", "type": "cell-based, human", "protocol": "as §1, §2, §3"}, "[5]": {"conditions": "A549, highest concentration (8 µM per Figure 4b)"}},
  "data": [
    {"smiles": "C=C1C(=O)C23C(=O)OC45CCC(C)(C)C6C(OC(=O)CCC(=O)N7CCC(c8noc9cc(F)ccc89)CC7)OCC64C2CCC1C3O5", "note": "(single isomer, unassigned; ent-6) [Compound 7h, ent-6β,14α-Dihydroxy-(1,7–1,14)-epoxy-7,15-dioxo-6,20-hemiketal-6,7-seco-16-kaurene-6β-yl 4-(4-(6-fluorobenzo[d]isoxazol-3-yl)piperidin-1-yl)-4-oxobutanoate]", "values": [
      {"measurement": "fold better than parental compound 4 (A549 IC50)", "setting": "A549 cells [1]; A549 cells", "value": 11.03, "unit": "fold"},
      {"measurement": "IC50", "setting": "A549 cells [1]; Homo sapiens, A549, MTT, 48 h, means ± SD of three experiments", "value": "2.16 ± 1.4", "unit": "µM"},
      {"measurement": "late apoptosis", "setting": "A549 cells [2]; [5]", "value": 41.8, "unit": "%"},
      {"measurement": "percentage of total apoptosis", "setting": "A549 cells [2]; [5]", "value": 58.00, "unit": "%"},
      {"measurement": "percentage of total apoptosis", "setting": "A549 cells [2]; A549, lowest concentration (2 µM per Figure 4b)", "value": 5.38, "unit": "%"},
      {"measurement": "IC50", "setting": "L-02 cells; Homo sapiens, L02, 48 h", "value": "> 100", "unit": "µM"},
      {"measurement": "IC50", "setting": "L-02 cells; human normal cells, 48 h", "value": "> 50", "unit": "µM"},
      {"measurement": "IC50", "setting": "MCF-7 cells", "value": "6.74 ± 1.94", "unit": "µM"},
      {"measurement": "cells in G0/G1 phase", "setting": "A549 cells [3]; A549, 2 µM", "value": 62.99, "unit": "%"},
      {"measurement": "cells in G2/M phase", "setting": "A549 cells [3]; A549, 2 µM", "value": 16.21, "unit": "%"},
      {"measurement": "cells in S phase", "setting": "A549 cells [3]; A549, 2 µM", "value": 20.80, "unit": "%"},
      {"measurement": "cells in G0/G1 phase", "setting": "A549 cells [3]; A549, 4 µM", "value": 71.04, "unit": "%"},
      {"measurement": "cells in G2/M phase", "setting": "A549 cells [3]; A549, 4 µM", "value": 17.63, "unit": "%"},
      {"measurement": "cells in S phase", "setting": "A549 cells [3]; A549, 4 µM", "value": 11.33, "unit": "%"},
      {"measurement": "cells in G0/G1 phase", "setting": "A549 cells [3]; A549, 8 µM", "value": 89.87, "unit": "%"},
      {"measurement": "cells in G2/M phase", "setting": "A549 cells [3]; A549, 8 µM", "value": 3.93, "unit": "%"},
      {"measurement": "cells in S phase", "setting": "A549 cells [3]; A549, 8 µM", "value": 6.10, "unit": "%"},
      {"measurement": "apoptosis morphology (AO/EB)", "setting": "A549 cells [4]", "value": "generated large amounts of apoptotic cells"},
      {"measurement": "anticancer activity in words, HepG2", "setting": "HepG2 cells; HepG2 cells", "value": "low micro-molar-level anticancer activities"},
      {"measurement": "IC50", "setting": "HepG2 cells; Homo sapiens, HepG2, MTT, 48 h, means ± SD of three experiments", "value": "6.1 ± 1.24", "unit": "µM"}
    ]}
  ]
}
